The molecules below were run on BHK-21 cells (assay: Anti-fibrosis activity test: inhibition of BHK-21 cell proliferation (CCK-8)). Settings: Mesocricetus auratus, BHK-21, 48 h, 48 h, CCK-8.
Assay type: cell-based
Method in brief: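 Read-out: CCK-8 absorbance at 450 nm after 2 h, giving proliferation inhibition (1−Ai/Ao)×100% versus blank control, from which IC50 was derived. Cells had been treated with compounds for 48 h after 24 h adherence at 37° C. Pirfenidone served as positive control.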

Structure (SMILES)	IC50 [mM]
O=C1c2c(n(Cc3ccccc3[N+](=O)[O-])c3ccccc3c2=O)-c2cccn21 [Compound 668a, 4-(2-Nitrobenzyl)-9H-pyrrolizino[1,2-b]quinoline-9,10(4H)-dione]	0.05 to 5

Same assay, conditions: Mesocricetus auratus, BHK-21, 48 h, CCK-8, 48 hours after administration

Structure (SMILES)	IC50 [mM]
O=C1c2c(nc3ccccc3c2OCc2ccc(F)c(F)c2)-c2cccn21 [Compound 601b, 9-((3,4-difluorobenzyl)oxy)-10H-pyrrolizino[1,2-b]quinolin-10-one]	0.05 to 5
N#Cc1cccc2c(O)c3c(nc12)-c1cccn1C3=O [Compound 447b, 9-hydroxy-10-oxo-10H-pyrrolizino[1,2-b]quinoline-5-carbonitrile]	0.05 to 5
COc1cccc2c(O)c3c(nc12)-c1cccn1C3=O [Compound 446b, 9-hydroxy-5-methoxy-10H-pyrrolizino[1,2-b]quinolin-10-one]	0.05 to 5

The molecules below were run on human lung fibroblasts HFL1 (assay: Anti-fibrosis activity test: inhibition of proliferation of human lung fibroblasts HFL1 (CCK-8)). Settings: Homo sapiens, HFL1, 48 h, HFL1 cells, 48 h, CCK-8.
Assay type: cell-based
Method in brief: (§1)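 Exponentially growing cells, 2×10^4 cells/mL, attached 24 h. Dosed 48 h across concentrations (n=3). CCK-8 2 h → A450; IR vs blank; IC50.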

Structure (SMILES)	IC50 [mM]
O=C1c2c(n(Cc3ccccc3[N+](=O)[O-])c3ccccc3c2=O)-c2cccn21 [Compound 668a, 4-(2-Nitrobenzyl)-9H-pyrrolizino[1,2-b]quinoline-9,10(4H)-dione]	0.05 to 5

Same assay, conditions: Homo sapiens, HFL1, 48 h, human lung fibroblasts HFL1, CCK-8, 48 hours

Structure (SMILES)	IC50 [mM]
O=C1c2c(nc3ccccc3c2OCc2ccc(F)c(F)c2)-c2cccn21 [Compound 601b, 9-((3,4-difluorobenzyl)oxy)-10H-pyrrolizino[1,2-b]quinolin-10-one]	0.05 to 5
N#Cc1cccc2c(O)c3c(nc12)-c1cccn1C3=O [Compound 447b, 9-hydroxy-10-oxo-10H-pyrrolizino[1,2-b]quinoline-5-carbonitrile]	0.05 to 5
COc1cccc2c(O)c3c(nc12)-c1cccn1C3=O [Compound 446b, 9-hydroxy-5-methoxy-10H-pyrrolizino[1,2-b]quinolin-10-one]	0.05 to 5

Each molecule was assayed on human hepatic stellate cells LX-2 (assay: Anti-fibrosis activity test: inhibition of proliferation of human hepatic stellate cells LX-2 (CCK-8)). Settings: Homo sapiens, 48 h, human hepatic stellate cells LX-2, CCK-8, 48 hours.
Assay type: cell-based
Method in brief: as §1

Structure (SMILES)	IC50 [mM]
O=C1c2c(nc3ccccc3c2OCc2ccc(F)c(F)c2)-c2cccn21 [Compound 601b, 9-((3,4-difluorobenzyl)oxy)-10H-pyrrolizino[1,2-b]quinolin-10-one]	0.05 to 5
N#Cc1cccc2c(O)c3c(nc12)-c1cccn1C3=O [Compound 447b, 9-hydroxy-10-oxo-10H-pyrrolizino[1,2-b]quinoline-5-carbonitrile]	0.05 to 5
COc1cccc2c(O)c3c(nc12)-c1cccn1C3=O [Compound 446b, 9-hydroxy-5-methoxy-10H-pyrrolizino[1,2-b]quinolin-10-one]	0.05 to 5

Same assay, conditions: Homo sapiens, LX-2, 48 h, LX-2 cells, 48 h, CCK-8

Structure (SMILES)	IC50 [mM]
O=C1c2c(n(Cc3ccccc3[N+](=O)[O-])c3ccccc3c2=O)-c2cccn21 [Compound 668a, 4-(2-Nitrobenzyl)-9H-pyrrolizino[1,2-b]quinoline-9,10(4H)-dione]	0.05 to 5

The molecules below were run on human fibrosarcoma cells HT-1080 (assay: Anti-fibrosis activity test: inhibition of proliferation of human fibrosarcoma cells HT-1080 (CCK-8)). Settings: Homo sapiens, HT-1080, 48 h, HT-1080 cells, 48 h, CCK-8.
Assay type: cell-based
Method in brief: as §1

Structure (SMILES)	IC50 [mM]
O=C1c2c(n(Cc3ccccc3[N+](=O)[O-])c3ccccc3c2=O)-c2cccn21 [Compound 668a, 4-(2-Nitrobenzyl)-9H-pyrrolizino[1,2-b]quinoline-9,10(4H)-dione]	0.05 to 5

Same assay, conditions: Homo sapiens, HT-1080, 48 h, human fibrosarcoma cells HT-1080, CCK-8, 48 hours

Structure (SMILES)	IC50 [mM]
O=C1c2c(nc3ccccc3c2OCc2ccc(F)c(F)c2)-c2cccn21 [Compound 601b, 9-((3,4-difluorobenzyl)oxy)-10H-pyrrolizino[1,2-b]quinolin-10-one]	0.05 to 5
N#Cc1cccc2c(O)c3c(nc12)-c1cccn1C3=O [Compound 447b, 9-hydroxy-10-oxo-10H-pyrrolizino[1,2-b]quinoline-5-carbonitrile]	0.05 to 5
COc1cccc2c(O)c3c(nc12)-c1cccn1C3=O [Compound 446b, 9-hydroxy-5-methoxy-10H-pyrrolizino[1,2-b]quinolin-10-one]	0.05 to 5

These molecules were tested on human dermal fibroblasts CCC-ESF-1 (assay: Anti-fibrosis activity test: inhibition of proliferation of human dermal fibroblasts CCC-ESF-1 (CCK-8)). Settings: Fibroblast; human dermal fibroblasts CCC-ESF-1, CCK-8, 48 hours.
Assay type: cell-based
Method in brief: as §1

Structure (SMILES)	IC50 [mM]
O=C1c2c(nc3ccccc3c2OCc2ccc(F)c(F)c2)-c2cccn21 [Compound 601b, 9-((3,4-difluorobenzyl)oxy)-10H-pyrrolizino[1,2-b]quinolin-10-one]	0.05 to 5
N#Cc1cccc2c(O)c3c(nc12)-c1cccn1C3=O [Compound 447b, 9-hydroxy-10-oxo-10H-pyrrolizino[1,2-b]quinoline-5-carbonitrile]	0.05 to 5
COc1cccc2c(O)c3c(nc12)-c1cccn1C3=O [Compound 446b, 9-hydroxy-5-methoxy-10H-pyrrolizino[1,2-b]quinolin-10-one]	0.05 to 5

Same assay, conditions: Homo sapiens, Fibroblast; CCC-ESF-1 cells, 48 h, CCK-8

Structure (SMILES)	IC50 [mM]
O=C1c2c(n(Cc3ccccc3[N+](=O)[O-])c3ccccc3c2=O)-c2cccn21 [Compound 668a, 4-(2-Nitrobenzyl)-9H-pyrrolizino[1,2-b]quinoline-9,10(4H)-dione]	0.05 to 5

These molecules were tested on human embryonic lung fibroblast IMR-90 (assay: Anti-fibrosis activity test: inhibition of proliferation of human embryonic lung fibroblast IMR-90 (CCK-8)). Settings: Homo sapiens; IMR-90 cells, 48 h, CCK-8.
Assay type: cell-based
Method in brief: as §1

Structure (SMILES)	IC50 [mM]
O=C1c2c(n(Cc3ccccc3[N+](=O)[O-])c3ccccc3c2=O)-c2cccn21 [Compound 668a, 4-(2-Nitrobenzyl)-9H-pyrrolizino[1,2-b]quinoline-9,10(4H)-dione]	0.05 to 5

Same assay, conditions: human embryonic lung fibroblast IMR-90, CCK-8, 48 hours

Structure (SMILES)	IC50 [mM]
O=C1c2c(nc3ccccc3c2OCc2ccc(F)c(F)c2)-c2cccn21 [Compound 601b, 9-((3,4-difluorobenzyl)oxy)-10H-pyrrolizino[1,2-b]quinolin-10-one]	0.05 to 5
N#Cc1cccc2c(O)c3c(nc12)-c1cccn1C3=O [Compound 447b, 9-hydroxy-10-oxo-10H-pyrrolizino[1,2-b]quinoline-5-carbonitrile]	0.05 to 5
COc1cccc2c(O)c3c(nc12)-c1cccn1C3=O [Compound 446b, 9-hydroxy-5-methoxy-10H-pyrrolizino[1,2-b]quinolin-10-one]	0.05 to 5

The molecules below were run on cardiac fibroblast RAT-iCell-C002 (assay: Anti-fibrosis activity test: inhibition of proliferation of cardiac fibroblast RAT-iCell-C002 (CCK-8)). Settings: Cardiac fibroblast, 48 h, RAT-iCell-C002 cells, CCK-8.
Assay type: cell-based
Method in brief: as §1

Structure (SMILES)	IC50 [mM]
O=C1c2c(n(Cc3ccccc3[N+](=O)[O-])c3ccccc3c2=O)-c2cccn21 [Compound 668a, 4-(2-Nitrobenzyl)-9H-pyrrolizino[1,2-b]quinoline-9,10(4H)-dione]	0.05 to 5

Same assay, conditions: Cardiac fibroblast, 48 h, cardiac fibroblast RAT-iCell-C002, CCK-8, 48 hours

Structure (SMILES)	IC50 [mM]
O=C1c2c(nc3ccccc3c2OCc2ccc(F)c(F)c2)-c2cccn21 [Compound 601b, 9-((3,4-difluorobenzyl)oxy)-10H-pyrrolizino[1,2-b]quinolin-10-one]	0.05 to 5
N#Cc1cccc2c(O)c3c(nc12)-c1cccn1C3=O [Compound 447b, 9-hydroxy-10-oxo-10H-pyrrolizino[1,2-b]quinoline-5-carbonitrile]	0.05 to 5
COc1cccc2c(O)c3c(nc12)-c1cccn1C3=O [Compound 446b, 9-hydroxy-5-methoxy-10H-pyrrolizino[1,2-b]quinolin-10-one]	0.05 to 5

Each molecule was assayed on NF-κB (assay: Immunological activity test: inhibition of NF-κB activity). Settings: initial concentration of 30 μM; a/b isomers given as first/second symbol; read-out: IC50 (μM), inhibitory activity against NF-κB.
Assay type: cell-based
Method in brief: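 NF-κB inhibition was tested at an initial 30 μM compound concentration, with parthenolide as positive control, and IC50 values were determined from follow-up analysis.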

Structure (SMILES)	IC50 [µM]
O=C1c2c(nc3ccccc3c2OCc2ccc(F)c(F)c2)-c2cccn21 [Compound 601b, 9-((3,4-difluorobenzyl)oxy)-10H-pyrrolizino[1,2-b]quinolin-10-one]	1 to 10
N#Cc1cccc2c(O)c3c(nc12)-c1cccn1C3=O [Compound 447b, 9-hydroxy-10-oxo-10H-pyrrolizino[1,2-b]quinoline-5-carbonitrile]	0.1 to 1
COc1cccc2c(O)c3c(nc12)-c1cccn1C3=O [Compound 446b, 9-hydroxy-5-methoxy-10H-pyrrolizino[1,2-b]quinolin-10-one]	0.001 to 0.1
O=C1c2c(n(Cc3ccccc3[N+](=O)[O-])c3ccccc3c2=O)-c2cccn21 [Compound 668a, 4-(2-Nitrobenzyl)-9H-pyrrolizino[1,2-b]quinoline-9,10(4H)-dione]	0.1 to 1

Each molecule was assayed on mouse macrophages (RAW264.7) (assay: Lipopolysaccharide-induced NO secretion in macrophages (Griess)). Settings: Mus musculus, RAW264.7, 24 h, RAW264.7, LPS 1 μg/ml, a/b isomers given as first/second symbol, read-out: IC50 (μM), inhibition of lipopolysaccharide-induced NO secretion in macrophages.
Assay type: cell-based
Method in brief: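 RAW264.7 cells in DMEM with 10% FBS were treated with test compounds at several concentrations, then stimulated with LPS (1 μg/ml) for 24 hours. Nitrite in the supernatant was measured by Griess reaction at 548 nm, and percent inhibition was calculated against blank-medium controls.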

Structure (SMILES)	IC50 [µM]
O=C1c2c(nc3ccccc3c2OCc2ccc(F)c(F)c2)-c2cccn21 [Compound 601b, 9-((3,4-difluorobenzyl)oxy)-10H-pyrrolizino[1,2-b]quinolin-10-one]	1 to 10
N#Cc1cccc2c(O)c3c(nc12)-c1cccn1C3=O [Compound 447b, 9-hydroxy-10-oxo-10H-pyrrolizino[1,2-b]quinoline-5-carbonitrile]	1 to 10
COc1cccc2c(O)c3c(nc12)-c1cccn1C3=O [Compound 446b, 9-hydroxy-5-methoxy-10H-pyrrolizino[1,2-b]quinolin-10-one]	1 to 10
O=C1c2c(n(Cc3ccccc3[N+](=O)[O-])c3ccccc3c2=O)-c2cccn21 [Compound 668a, 4-(2-Nitrobenzyl)-9H-pyrrolizino[1,2-b]quinoline-9,10(4H)-dione]	1 to 10
